# Test results reported in patent publication US20190211020A1 (Agency for Science, Technology and Research, priority 2012, published 2019).
# Read-outs that look alike come from different tables or passages of the source.
# Tests used:
# [1] = test system: eIF4E phosphorylation in cerebellar neurons in brain sections; assay: Immunoblot of phospho-eIF4E in mouse cerebellar brain slices; details: 40 μM CGP57380 or 50 nM ETC7168 for 45 mins
# Procedure: For biochemical analyses mice were sacrificed by CO2 inhalation, the cerebellum dissected and rapidly placed in a vibratome chamber and sectioned at 300 μm in cold oxygenated aCSF (in mM: 125 NaCl, 2.5 KCl, 1 MgCl2, 2 CaCl2, 1.25 NaH2PO4, 20 Glucose, 26 NaHCO3, 95% O2/5% CO2). Slices obtained were maintained at 33° C. in oxygenated aCSF and treated with 40 μM CGP57380 or 50 nM ETC7168 for 45 mins and tissues were subsequently snap frozen in liquid nitrogen. Tissues were lysed in 25 mM Tris-HCl, 150 mM NaCl, 1% Triton, 0.2% SDS, 5 mM EDTA, 2 mM DTT, 1 mM NaF, 1 mM Na3VO4 containing protease inhibitor cocktail. The soluble fractions were analyzed by immunoblotting with primary antibodies for 24 hrs at 4° C. followed by detection with secondary antibodies for enhanced chemoluminescent detection. […] Behavioral testing was performed using a well-accepted test for autism that consists of quantitative analysis of ultrasonic vocalizations emitted by male mice exposed to females in estrous^75. […] Prior to testing, the estrous cycle of each female mouse was assessed and only females in estrous were kept for testing. […] Subsequently a female in estrous was introduced in the arena, and ultrasonic vocalizations were recorded for 3 min using the Avisoft system (Avisoft Bioacoustics) with a frequency bandwidth of 30 kHz to 100 kHz. The number and length of ultrasonic vocalizations were quantified. […]
# [2] = test system: P116.c139 (acute T cell leukemia); assay: Cell cytotoxicity assay (CellTiter-Glo), P116.c139; type: cell-based; details: T-cell, cell viability
# Procedure: (§1) Cancer cell lines, MV-4-11 (leukemia), P116.c139 (acute T cell leukemia) and D1.1 (acute T cell leukemia), were purchased from ATCC and cultured according to supplier's recommendations. K562 cells (myelogenous leukemia) over-expressing eIF4E, were also used for the cytotoxicity assay. For cells treated for 48 hours, 5000 cells were seeded in 70 μl of growth medium in black, flat-bottom 96-well plate. For cells treated for six days, 1000 cells were seeded in 70 μl of growth medium in black, flat-bottom 96-well plate. […] 50 μl of the diluted compounds was added to the cells and incubated at 37° C. in 5% CO2. After 48 hours or six days treatment, cell viability was determined by CellTiter-Glo Luminescent Cell Viability Assay (Promega, Madison, Wis.). 120 μl of the reagent was added to the cells and luminescence was measured using Tecan Safire Reader. Data was analysed with Graphpad Prism software and the figures represented indicate the half maximal inhibitory concentration (IC50). Error bars denote standard deviation (SD).
# [3] = test system: nuclear active beta-catenin in BC-CML primary cells; assay: Immunofluorescence of nuclear active beta-catenin in BC-CML primary cells; type: cell-based, human
# From the text: Cord Blood (CB) samples were purchased from the Singapore Cord Blood bank. CML samples were the Singapore General Hospital after signed informed consent under local IRB-approved procedures. MNCs were obtained using Ficoll separation, and CD34^+ cells selected by immunomagnetic beads (Miltenyi Biotech, Germany).
# Cells (1×10^5) were cytospun onto glass slides, fixed with 4% paraformaldehye, and stained with mouse monoclonal antibodies against activated β-catenin (clone 8E7, Millipore, UK), or rabbit monoclonal antibodies against phospho-eIF4E S209 (EP2151Y, Abcam, UK). Slides were then stained with either PE-conjugated anti-mouse or FITC-conjugated anti-rabbit antibodies. Images were obtained with the use of a fluorescence microscope (Olympus IX71S1F3) at 40× magnification.
# [4] = test system: D1.1 (acute T cell leukemia); assay: Cell cytotoxicity assay (CellTiter-Glo), D1.1; type: cell-based; details: T-cell, cell viability
# Procedure: as §1
smiles,measurement,setting,value
"N#Cc1ccc(-c2cnc3ccc(-c4ccc(C(=O)N5CCOCC5)cc4)nn23)cc1 [Example 62, 4-(6-(4-(morpholine-4-carbonyl)phenyl)imidazo[1,2-b]pyridazin-3-yl)benzonitrile]",eIF4E phosphorylation in cerebellar brain sections,[1],inhibit eIF4E phosphorylation
same,IC50,"[2]; 144 h, 6 days, read-out: IC50 after 6 days of treatment, P116.c139",0.3 µM
same,IC50,"[2]; 48 hours, read-out: IC50 after 48 hours of treatment, P116.c139",0.8 µM
same,"nuclear active beta-catenin in BC-CML primary cells, immunofluorescence",[3],decrease in nuclear beta-catenin accumulation
same,IC50,"[4]; 144 h, 6 days, read-out: IC50 after 6 days of treatment, D1.1",1.7 µM
same,IC50,"[4]; 48 hours, read-out: IC50 after 48 hours of treatment, D1.1",1.6 µM
